The text below walks through data of PubChem BioAssay (NCI).

What all share (experiment): growth of human tumour cells (NCI), 48 h
The subject of assay [1] is A498 renal.
Assay [2] deals with LOX IMVI melanoma.
Assay [3] relates to RPMI-8226 leukemia.
In assay [4] the test system is BT-549 breast.
The subject of assay [5] is SK-MEL-28 melanoma.
The test system of assay [6] is OVCAR-4 ovarian.
In assay [7] the test system is NCI-H23 lung.
The subject of assay [8] is A549 NSCLC.

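These data come from cells grown in 96-well plates and exposed to compound for 48 hours at five concentrations. GI50 = concentration required for 50% inhibition of growth. The concentration for full growth arrest is given as TGI.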

As to `C=C1C(=O)O[C@H]2[C@H]1CC/C(COC(=O)NCc1c[nH]c3ccccc13)=C\CC[C@@]1(C)O[C@@H]21`, the GI50 is 11.1 µM in assay [1]; 1.4 µM in assay [2]; 1.79 µM in assay [3]; 1.98 µM in assay [4]; 2.65 µM in assay [5]; 4.5 µM in assay [6]. Further, the GI50 in assay [7] is 8.37 µM; in assay [8], 12.5 µM. Also, the TGI was 23.2 µM in assay [1]; 2.87 µM in assay [2]; 6.14 µM in assay [3]; 6.3 µM in assay [4]; 8.99 µM in assay [5]; 18.6 µM in assay [6]. Further, the TGI in assay [7] is 24.5 µM; in assay [8] it was 28.6 µM.

For `O=C(/C=C/c1ccc(Cl)cc1)c1ccccc(=O)c1O`, the TGI stood at 36 µM in assay [1]; 13 µM in assay [2]; 4.79 µM in assay [3]; 13.5 µM in assay [4]; 26.4 µM in assay [5]; 17.9 µM in assay [6]. The TGI in assay [7] was 18.1 µM; in assay [8], over 39.2 µM.

As for `NC(=NCc1ccccc1)C(N=Nc1ccccc1)C(=O)NCc1ccccc1` (stereo unspecified), the GI50 in assay [1] is 6.17 µM; in assay [2], 8.36 µM; in assay [3], 9.31 µM; in assay [5] it was 20.4 µM; in assay [6], 18.5 µM; in assay [7], 5 µM. In addition, in assay [8], the GI50 is 3.05 µM. The TGI in assay [1] was 23 µM; in assay [2], 24.3 µM; in assay [3], over 100 µM; in assay [5], 45.7 µM; in assay [6], 45.1 µM; in assay [7], 21.9 µM. In assay [8], the TGI amounted to 10.1 µM.

For the compound `COC(=O)c1ccc2c(c1)C(=O)c1c-2n(CCCCl)c(=O)c2cc([N+](=O)[O-])ccc12`, the GI50 in assay [1] is over 100 µM; in assay [2] it was 40.9 µM; in assay [3], 84.5 µM; in assay [4] it was 44.4 µM; in assay [5] it was over 100 µM; in assay [6], over 100 µM. In assay [7], the GI50 is 94.6 µM. Further, the TGI in assay [1], in assay [2], in assay [3], in assay [4], in assay [5] and in assay [6] was over 100 µM in each case. The same compound had a TGI in assay [7] of over 100 µM.

As to `COc1cccc(/C=C/C(=O)c2ccc(SC)cc2)c1OC`, the GI50 in assay [1] is 11.3 µM; in assay [3], 5.6 µM; in assay [4] it was 20.8 µM; in assay [5], 20 µM; in assay [7] it was 14.6 µM; in assay [8], 12.1 µM. Besides, the TGI in assay [1] was 23.8 µM; in assay [3] it was over 100 µM; in assay [4], 40.5 µM; in assay [5] it was 36.7 µM; in assay [7], 28.2 µM; in assay [8], 25.5 µM.

For the compound `C[C@H]1/C(=C/C(=O)OCCN(C)C)CC[C@H]2[C@H]1C(=O)C[C@H]1C(C)(C)[C@@H](O)CC[C@]21C`, the TGI in assay [1], in assay [2], in assay [3], in assay [4], in assay [5] and in assay [6] was over 100 µM in each case. In addition, the TGI in assay [7] and in assay [8] was over 100 µM throughout.

Regarding `CN(C)CCCN(CCC1CCCCC1)CCC1CCCCC1`, the GI50 is 2.87 µM in assay [1]; 1.47 µM in assay [2]; 0.424 µM in assay [3]; 7.74 µM in assay [4]; 0.593 µM in assay [5]; 7.41 µM in assay [6]. The GI50 was 4.8 µM in assay [7] and 2.69 µM in assay [8]. Moreover, the TGI turned out to be 9.61 µM in assay [1]; 2.91 µM in assay [2]; 3.86 µM in assay [3]; 22.2 µM in assay [4]; 1.18 µM in assay [5]; 27.7 µM in assay [6]. Moreover, the TGI in assay [7] amounted to 17.9 µM; in assay [8] it was 8.5 µM.

For the compound `Nc1c(C(=O)Nc2ccccc2)sc2nc3c(cc12)CCCCC3`, the GI50 in assay [1] is 0.307 µM; in assay [2], 0.907 µM; in assay [3], 0.372 µM; in assay [4], 0.819 µM; in assay [5], 0.812 µM; in assay [7], 0.874 µM. In assay [8], the GI50 was 0.696 µM. Moreover, the TGI in assay [1] was 4.74 µM; in assay [2] it was over 100 µM; in assay [3], 14.3 µM; in assay [4], 20.1 µM; in assay [5] it was over 100 µM; in assay [7], 97.3 µM. Also, the TGI in assay [8] was over 100 µM.

As to `COc1cc2c3cc1Oc1c(OC)c(OC)cc4c1C(=NCC4)Cc1ccc(cc1)Oc1cc(ccc1O)C[C@H]3N(C)CC2`, the TGI in assay [1] was 36.7 µM; in assay [2] it was 25.1 µM; in assay [3], 47.5 µM; in assay [4], 24.9 µM; in assay [5] it was 30.3 µM; in assay [6] it was 40.7 µM. Moreover, the TGI in assay [7] was 44 µM; in assay [8], over 100 µM.

`CCCCC(CCCCCC(CCCC)NCc1ccc2c(c1)OCO2)NCc1ccc2c(c1)OCO2` (stereo unspecified): the GI50 in assay [1] is 1.49 µM; in assay [2] it was 0.22 µM; in assay [3] it was 0.276 µM; in assay [4] it was 1.48 µM; in assay [5] it was 0.188 µM; in assay [6], 1.46 µM. Further, the GI50 in assay [7] is 1.32 µM; in assay [8], 0.426 µM. Besides, the TGI in assay [1] is 2.83 µM; in assay [2] it was 0.581 µM; in assay [3] it was 0.805 µM; in assay [4], 3.06 µM; in assay [5], 0.337 µM; in assay [6], 2.81 µM. The TGI in assay [7] came to 2.71 µM; in assay [8] it was 1.02 µM.
